Holding throughout (type): physicochemical
A short description of data set [1]: desorption of applied medicine from porous media to potable water. As to conditions: 50 ml of potable water.
Data set [2] can be described thus: quantity of medicine that can be applied on unit area of porous media with a jet printer. As to conditions: fiberglass membrane made by Algstrem.
Method: Using a jet printer with rechargeable cartridges the solution was applied on a 236.5 cm^2 specimen of media made from cellulose filtering material (size 21.5*1 1 cm^2, format Letter) with different printing qualities in dpi and different area filling densities. […] Following that the quantity of acetylsalicylic acid applied per unit area was analyzed depending on software controlled printing quality (in dpi). Using the specially plotted graduation curve the required printing densities in dpi were selected for applying 130 mg per 0.25 cm^2, or 520 mg/cm^2. The specimen was dried in a hot air flow for guaranteed removal of the water/alcohol solvent and packaged in a polymer container protecting the specimen from direct sunlight. Then the specimen was removed from the container and placed in a glass with water.
A similar procedure was conducted for d, 1-2-(4-isobutylphenyl)-propionic acid (the active pharmaceutical substance of the Ibuprofen medicine) and a fiberglass membrane made by Algstrem, USA, used in immunology.
A short description of data set [3]: solubility in water/alcohol solutions. The conditions noted are these: water/alcohol solutions of the abovementioned concentrations.
Data set [4] can be described thus: stability of medicine during application with a piezoelectric apparatus (chromatography). As to conditions: heat from piezoelectric apparatus above 40 degrees Celsius. The text has this:
Initially, at S110, a head 216 of a printing device 208 is dismantled. The head 216 of the printing device 208 may include a plurality of head nozzles 218 operative to dispense a liquid therefrom. The printing device 208 may be a piezoelectric apparatus, or any other suitable apparatus. The printing device 208 may accurately (e.g., within 5% of a nominal range) output a range of drop sizes (e.g., 2-80 picolitres) at a relatively high dispensing frequency (e.g., 1000-3000 drops per second). The printing device 208 may operate based on an inverse piezoelectric effect, whereby a piezoelectric element is deformed under the influence of an electric field. […] In one or more embodiments, the printing device 208 may include a thermo sensor 230 to control the temperature of the head 216 to avoid heating the medicine to a temperature that results in decomposition of the medicine. […] It is noted that the ranges of acceptable temperatures may be analyzed, as cooling may affect viscosity of the medicine. […] The inventors note that, per their research on the use of vitamin C in a piezoelectric apparatus, during application of the medicine to the porous media, heat resulting from the use of the piezoelectric apparatus occurred above 40 degrees Celsius, as vitamin C was destroyed and its presence was not detected during chromatography. […]

As to `CC(C)Cc1ccc(C(C)C(=O)O)cc1` (centres unmarked) [d, 1-2-(4-isobutylphenyl)-propionic acid], in data set [1] (1 cm^2 fiberglass membrane (Algstrem), 300±2 mg applied), the “quantity desorbed to potable water” value is recorded as 246±2. The “share of applied quantity desorbed to potable water” value in data set [1] (1 cm^2 fiberglass membrane) was found to be 82%. The “possible quantity that can be applied on 1 cm^2 (unit area)” value in data set [2] worked out at 300 ± 2 mg.

Regarding `CC(=O)Oc1ccccc1C(=O)O` [acetylsalicylic acid], the “solubility in water/alcohol solutions” value in data set [3] is on record as approximately 100%.

Take `O=C1O[C@H]([C@@H](O)CO)C(O)=C1O` [vitamin C]: the “stability during application to porous media with piezoelectric apparatus” value in data set [4] was “destroyed”.

The values are drawn from US12329722B2, “Finished pharmaceutical form with individual medicine dosing capability (embodiments) and methods of its production and use” (PSIMOS, INC., priority 2016, dated 2025).
